These results are taken from patent US6677336B2, “Substituted piperazine compounds” (CV Therapeutics, Inc., priority 2000, dated 2004).

The structures appear in SMILES notation.

Series [1] relates to mitochondrial fatty acid oxidation (rat heart mitochondria). Put plainly: Palmitoyl CoA oxidation in isolated rat heart mitochondria. Type of series: biochemical. Particulars: 15 min at 30° C, DMSO control. On the procedure:
Compounds of this invention were evaluated in a rat heart mitochondiral assay as set forth below.
(§1) Rat heart mitochondria were isolated by the method of Nedergard and Cannon (methods in Enzymol. 55, 3, 1979).
Palmitoyl CoA oxidation—The Palmityl CoA oxidation was carried out in a total volume of 100 micro liters containing the following agents: 110 mM KCl, 33 mM Tris buffer at pH 8, 2 mM KPi, 2 mM MgCl2, 0.1 mM EDTA, 14.7 microM defatted BSA, 0.5 mM malic acid, 13 mM carnitine, 1 mM ADP, 52 micrograms of mitochondrial protein, and 16 microM 1-C14 palmitoyl CoA (Sp. Activity 60 mCi/mmole; 20 microCi/ml, using 5 microliters per assay). The compounds of this invention were added in a DMSO solution at the following concentrations: 100 microM, 30 microM, and 3 microM. In each assay, a DMSO control was used. After 15 min at 30° C., the enzymatic reaction was centrifuged (20,000 g for 1 min), and 70 microliters of the supernatant was added to an activated reverse phase silicic acid column (approximately 0.5 ml of silicic acid). The column was eluted with 2 ml of water, and 0.5 ml of the eluent was used for scintillation counting to determine the amount of C^14 trapped as C^14 bicarbonate ion.

Series [2] shares this test system. Put plainly: Palmitoyl carnitine oxidation in isolated rat heart mitochondria. Type of series: biochemical. The settings on record: 15 min at 30° C, DMSO control. The procedure:
as §1
The Palmitoyl carnitine oxidation was carried out in a total volume of 100 microliters containing the following agents: 110 mM KCl, 33 mM Tris buffer at pH 8, 2 mM KPi, 2 mM MgCl2, 0.1 mM EDTA, 0.1 mg/ml of defatted BSA, 0.5 mM malic acid, 3 mM ADP, 52 micrograms of mitochondrial protein, and 43 microM 1-C14 palmitoyl carnitine (Sp. Activity 60 mCi/mmole; 20 microCi/ml, using 5 microliters per assay). The compounds of this invention were added in a DMSO solution at the following concentrations: 100 microM, 30 microM, and 3 microM. In each assay, a DMSO control was used. After 15 min at 30° C., the enzymatic reaction was centrifuged (20,000 g for 1 min), and 70 microliters of the supernatant was added to an activated reverse phase silicic acid column (approximately 0.5 ml of silicic acid). The column was eluted with 2 ml of water, and 0.5 ml of the eluent was used for scintillation counting to determine the amount of C^14 trapped as C^14 bicarbonate ion. The data are presented as % activity of control in Table 3, below.

Series [3] is described as follows: Metabolic stability in human liver S-9 fractions. The settings on record: human liver S9, 30 min at 37 C; for Liver S9 Parent Present relative to Ranolazine: 10 μM, % parent remaining divided by average % ranolazine remaining (57%).
Experimental: After, 30 minutes at 37 C, the amount of parent drug remaining was determined using LC-mass spec. The response factors for each compound was determined by establishing a standard curve and using an internal standard during the analysis of the samples. […] The compounds of this invention were assayed as described in the protocol below and the percentage of parent remaining was divided by the average % of ranolazine remaining (57%) affording a metabolic stability factor.
The purpose of this experiment is to compare the percentages remaining for compounds of this invention with the percentage remaining for ranolazine after 30 minutes of incubation with human liver S9 fractions.
The following reagents were used; Potassium phosphate, 0.5M pH 7.4 (incubation buffer), kept at room temperature; 0.05M MgCl2 kept at 4° C.; P-Nicotinamide adenine dinucleotide phosphate, tetrasodium salt, reduced form (NADPH), 0.02M solution in water (˜16.6mg/mL) from Sigma Lot #79H7044 prepared on day of use. 1 mM of ranolazine or Compounds 43, 45, 47, 52, 70, 74, 76, 78, and 80 in ACN further diluted to obtain 100 μM in 10% ACN; Human S9 stock: 20 mg/mL from Gentest.
Incubation mixtures were prepared as follows:
Combine all components with incubation buffer and re-pipette 200 μL/tube+25 μL of the compound being tested along with 25 μL of S-9.
After 5 min of pre-incubation at 37° C., at 0 and 30 min after starting the reaction, a 50 μl aliquot of the incubation mixture was removed and added to 100 μL of 9:1 acetonitrile: methanol containing the internal standard.
The mixture was centrifuged and a 100 μL aliquot of the supernatant was diluted in 1 mL of solvent C (0.1% Formic Acid in water). Then samples were analyzed for change between the ratio of compound to internal standard at time zero and 30 minutes by LC/MS (injected 10 EL).
Samples were analyzed for the starting compounds and potential metabolite/s by LC/MS using an internal standard and an ODS-C18 column with a flow rate of 0.25 ml/min.

With `Cc1cccc(C)c1NC(=O)CN1CCN(CC(O)CCOc2ccc(C(C)(C)C)cc2)CC1` (centres unmarked) [Compound 22], the “Inhibition of mitochondrial fatty acid oxidation using palmitoyl CoA as substrate - % of Control” value in series [1] (100 μM compound) is listed as 16%. For the same molecule, the “Inhibition of mitochondrial fatty acid oxidation using palmitoyl carnitine as substrate - % of Control” value in series [2] (100 μM compound) is 25%.

Regarding `COc1ccccc1OCC(O)CN1CCN(CC(=O)Nc2c(C)cccc2C)CC1(C)C` (centres unmarked) [Compound 18, N-(2,6-dimethylphenyl)-2-{4-[2-hydroxy-3-(2-methoxyphenoxy)propyl]-3,3-dimethylpiperazinyl}acetamide], in series [1] (100 μM compound), the “Inhibition of mitochondrial fatty acid oxidation using palmitoyl CoA as substrate - % of Control” value is given as 80%. The “Inhibition of mitochondrial fatty acid oxidation using palmitoyl carnitine as substrate - % of Control” value in series [2] (100 μM compound) amounted to 17%.

For `COc1ccccc1OCC(O)CN1CCN(CC(=O)Nc2c(C)cccc2C)C(=O)C1` (centres unmarked) [Compound 16, N-(2,6-dimethylphenyl)-2-{4-[2-hydroxy-3-(2-methoxyphenoxy)propyl]-2-oxopiperazinyl}acetamide], the “Inhibition of mitochondrial fatty acid oxidation using palmitoyl CoA as substrate - % of Control” value stood at 96% in series [1] (30 μM compound) and 100% in series [1] (100 μM compound). For the same molecule, the “Inhibition of mitochondrial fatty acid oxidation using palmitoyl carnitine as substrate - % of Control” value in series [2] (100 μM compound) stood at 64%. In addition, the “Liver S9 Parent Present relative to Ranolazine” value in series [3] came out at 0.15.

Regarding `COc1ccccc1OCC(O)CN1CCN(CC(=O)Nc2c(C)cccc2C)CC1` (racemic) [Ranolazine, (±)-N-(2,6-dimethylphenyl)-4-[2-hydroxy-3-(2-methoxyphenoxy)-propyl]-1-piperazineacetamide, reference compound], the entries for the “Inhibition of mitochondrial fatty acid oxidation using palmitoyl CoA as substrate - % of Control” value in series [1] (30 μM compound) and in series [1] (100 μM compound) were 90% and 75%, respectively. The “Inhibition of mitochondrial fatty acid oxidation using palmitoyl carnitine as substrate - % of Control” value in series [2] (30 μM compound) stood at 98%; in series [2] (100 μM compound), 63%. For the same molecule, in series [3], the “Liver S9 Parent Present relative to Ranolazine” value is recorded as 1.0. In addition, in series [3] (average of five experiments), the “percentage of parent drug remaining at the 30 minute time point” value is reported as 57%.

Take `COc1ccccc1OCC(O)CN1CCN(CC(=O)Nc2c(C)cccc2C)C2CCCCC21` (centres unmarked) [Compound 17]: the entries for the “Inhibition of mitochondrial fatty acid oxidation using palmitoyl CoA as substrate - % of Control” value in series [1] (3 μM compound), in series [1] (30 μM compound) and in series [1] (100 μM compound) were 100%, 98% and 89%, respectively. Also, the “Inhibition of mitochondrial fatty acid oxidation using palmitoyl carnitine as substrate - % of Control” value in series [2] (3 μM compound) was found to be 103%; in series [2] (30 μM compound), 88%; in series [2] (100 μM compound), 80%. The “Liver S9 Parent Present relative to Ranolazine” value in series [3] came to 0.45.

In the case of `COc1ccccc1OCC(O)CN1C[C@@H](C)N(CC(=O)Nc2c(C)cccc2C)C[C@@H]1C` (stereo partly drawn) [Compound 15, 2-{(5S,2R)-4-[2-hydroxy-3-(2-methoxyphenoxy)propyl]-2,5-dimethylpiperazinyl}-N-(2,6-dimethylphenyl)acetamide], the “Inhibition of mitochondrial fatty acid oxidation using palmitoyl CoA as substrate - % of Control” value in series [1] (3 μM compound) stood at 103%; in series [1] (30 μM compound) it was 97%; in series [1] (100 μM compound) it was 78%. Further, the “Inhibition of mitochondrial fatty acid oxidation using palmitoyl carnitine as substrate - % of Control” value in series [2] (3 μM compound) is reported as 106%; in series [2] (30 μM compound) it was 98%; in series [2] (100 μM compound), 82%. For the same molecule, the “Liver S9 Parent Present relative to Ranolazine” value in series [3] is 1.20.

In the case of `COc1ccccc1OCC(O)CN1C(C)CN(CC(=O)Nc2c(C)cccc2C)CC1C` (centres unmarked) [Compound 7, N-(2,6-dimethylphenyl)-2-{4-[2-hydroxy-3-(2-methoxy)propyl]-3,5-dimethylpiperazinyl}acetamide], the “Inhibition of mitochondrial fatty acid oxidation using palmitoyl CoA as substrate - % of Control” value came to 107% in series [1] (3 μM compound), 98% in series [1] (30 μM compound) and 85% in series [1] (100 μM compound). Further, the “Inhibition of mitochondrial fatty acid oxidation using palmitoyl carnitine as substrate - % of Control” value is listed as 109% in series [2] (3 μM compound), 102% in series [2] (30 μM compound) and 95% in series [2] (100 μM compound).

For the molecule `COc1cc(NC(=O)CN2CCN(C[C@H](O)COc3ccccc3F)[C@@H](C)C2)cc(OC)c1OC` [Compound 59, 2-{(3S)-4-[(2S)-3-(2-fluorophenoxy)-2-hydroxypropyl]-3-methylpiperazinyl}-N-(3,4,5-trimethoxyphenyl)acetamide], the “Inhibition of mitochondrial fatty acid oxidation using palmitoyl CoA as substrate - % of Control” value in series [1] (100 μM compound) is given as 76%.

Take `C[C@H]1CN(CC(=O)Nc2ccc(F)cc2)CCN1C[C@H](O)COc1ccccc1F` [Compound 50, 2-{(3S)-4-[(2S)-3-(2-fluorophenoxy)-2-hydroxypropyl]-3-methylpiperazinyl}-N-(4-fluorophenyl)acetamide]: the “Inhibition of mitochondrial fatty acid oxidation using palmitoyl CoA as substrate - % of Control” value in series [1] (100 μM compound) came out at 80%.

On to `C[C@H]1CN(CC(=O)Nc2c(Cl)cccc2Cl)CCN1C[C@H](O)COc1ccccc1F` [Compound 26, 2-{(3S)-4-[(2S)-3-(2-fluorophenoxy)-2-hydroxypropyl]-3-methylpiperazinyl}-N-(2,6-dichlorophenyl)acetamide], for which the “Inhibition of mitochondrial fatty acid oxidation using palmitoyl CoA as substrate - % of Control” value in series [1] (100 μM compound) stood at 0%.

As for `COc1cc(Cl)c(C)cc1NC(=O)CN1CCN(C[C@H](O)COc2ccccc2F)[C@@H](C)C1` [Compound 40, 2-{(3S)-4-[(2S)-3-(2-fluorophenoxy)-2-hydroxypropyl]-3-methylpiperazinyl}-N-(4-chloro-2-methoxy-5-methylphenyl)acetamide], in series [1] (100 μM compound), the “Inhibition of mitochondrial fatty acid oxidation using palmitoyl CoA as substrate - % of Control” value is recorded as 23%.

As to `Cc1cccc(CO)c1NC(=O)CN1CCN(C[C@H](O)COc2ccccc2F)[C@@H](C)C1` [Compound 62], in series [1] (100 μM compound), the “Inhibition of mitochondrial fatty acid oxidation using palmitoyl CoA as substrate - % of Control” value is 66%.

Regarding `Cc1cccc(C)c1NC(=O)CN1CCN(C[C@H](O)COc2ccccc2F)[C@@H](C)C1` [Compound 25, 2-{(3S)-4-[(2S)-3-(2-fluorophenoxy)-2-hydroxypropyl]-3-methylpiperazinyl}-N-(2,6-dimethylphenyl)acetamide], the “Inhibition of mitochondrial fatty acid oxidation using palmitoyl CoA as substrate - % of Control” value in series [1] (100 μM compound) is given as 77%.

On to `C[C@H]1CN(CC(=O)Nc2cc(Cl)cc(Cl)c2)CCN1C[C@H](O)COc1ccccc1F` [Compound 46, 2-{(3S)-4-[(2S)-3-(2-fluorophenoxy)-2-hydroxypropyl]-3-methylpiperazinyl}-N-(3,5-dichlorophenyl)acetamide], for which, in series [1] (100 μM compound), the “Inhibition of mitochondrial fatty acid oxidation using palmitoyl CoA as substrate - % of Control” value came to 7%.

As to `C[C@H]1CN(CC(=O)Nc2ccccc2-n2cccc2)CCN1C[C@H](O)COc1ccccc1F` [Compound 32, 2-{(3S)-4-[(2S)-3-(2-fluorophenoxy)-2-hydroxypropyl]-3-methylpiperazinyl}-N-(2-pyrrolylphenyl)acetamide], in series [1] (100 μM compound), the “Inhibition of mitochondrial fatty acid oxidation using palmitoyl CoA as substrate - % of Control” value was found to be 74%.

`COc1ccc(NC(=O)CN2CCN(C[C@H](O)COc3ccccc3F)[C@@H](C)C2)cc1F` [Compound 58, 2-{(3S)-4-[(2S)-3-(2-fluorophenoxy)-2-hydroxypropyl]-3-methylpiperazinyl}-N-(3-fluoro-4-methoxyphenyl)acetamide]: the “Inhibition of mitochondrial fatty acid oxidation using palmitoyl CoA as substrate - % of Control” value in series [1] (100 μM compound) is 81%.

Take `Cc1ccc(NC(=O)CN2CCN(C[C@H](O)COc3ccccc3F)[C@@H](C)C2)cc1` [Compound 48, 2-{(3S)-4-[(2S)-3-(2-fluorophenoxy)-2-hydroxypropyl]-3-methylpiperazinyl}-N-(4-methylphenyl)acetamide]: in series [1] (100 μM compound), the “Inhibition of mitochondrial fatty acid oxidation using palmitoyl CoA as substrate - % of Control” value amounted to 61%.
